Patent US12521437B2 (Synthorx, Inc., priority 2019, dated 2026)

How the values were obtained:
Treg cells = experiment: pSTAT5 signaling in human LRS-derived PBMC samples, Treg cells (flow cytometry); assay type: cell-based; settings: for EC50 for pSTAT5 signaling, Treg cells: Table 13 (Example 11); for Fold increase in Treg EC50 vs native IL-2: compared to native IL-2 run in each individual experiment
Protocol: (§1) These studies were performed at PrimityBio LLC (Fremont, CA). […] Staining panel for flow cytometry study of LRS-derived PBMC samples include markers for Effector T cells (Teff: CD3+, CD4+, CD8+, CD127+), NK cells (CD3-, CD16+), and Regulatory T cells (Treg: CD3+, CD4+, CD8-, IL-2Rα+, CD127-1).
(§2) These studies were performed at PrimityBio LLC (Fremont, CA). […] Staining panel for flow cytometry study of LRS-derived PBMC samples include markers CD4, CD4+ memory central, CD4+ memory effect, CD4+ memory T cells, CD4+ Naive T cells, CD4+ T cells, CD8, CD8+ memory central, CD8+ memory effect, CD8+ memory T cells, CD8+ Naive T cells, CD8+ T cells, NK cells, and T regulatory cells.
(§3) Conjugates of Table 13 were synthesized by modification of SEQ NO. 1. These studies were performed at PrimityBio LLC (Fremont, CA).

NK cells = experiment: pSTAT5 signaling in human LRS-derived PBMC samples, NK cells (flow cytometry); assay type: cell-based; settings: Table 13 (Example 11)
Protocol: as §1, §3

CTLL-2 = CTLL-2 proliferation; assay type: cell-based, mouse; settings: Table 13 (Example 11)
CD8+ T cells = experiment: pSTAT5 signaling in human LRS-derived PBMC samples, CD8+ T cells (flow cytometry); assay type: cell-based; settings: Table 13 (Example 11)
Protocol: as §1, §2, §3

[1] = human transferrin; cited from earlier work

| EC50 for pSTAT5 signaling, Treg cells (Treg cells) [pg/ml] | Fold increase in Treg EC50 vs native IL-2 (Treg cells) | EC50 for pSTAT5 signaling, NK cells (NK cells) [pg/ml] | EC50 for pSTAT5 signaling, CD8+ Tcells (CD8+ T cells) [pg/ml] | Substance | EC50 CTLL-2 proliferation (CTLL-2) [ng/mL] | CD8+/Treg ratio (CD8+ T cells) | half-life [1] [h] |
| --- | --- | --- | --- | --- | --- | --- | --- |
| 175805 | 3663 | 2780819 | 12503386 | N88R/D109_30kD: IL-2 variant with N88R substitution and 30 kD PEG at D109 | 59.577 | 71 | – |
| 11082 | 148 | 2312847 | 15025734 | N88R: IL-2 variant with N88R substitution [reference compound] | 0.363 | 1356 | – |
| 142 | 3 | 20537 | 102255 | V91K: IL-2 variant with V91K substitution [reference compound] | 0.0995 | 720 | – |
| – | – | – | – | human transferrin: 679 amino acid polypeptide that is about 80 kDa in size and comprises two Fe^3+ binding sites | – | – | 170 to 288 |
